Assay results taken from patent US20220151230A1, “SPECIFICALLY SUBSTITUTED 3-(2-HALOGEN-6-ALKYL-4-PROPINYLPHENYL)-3-PYRROLIN-2-ONES AND TO THE USE THEREOF AS HERBICIDES” (Bayer Aktiengesellschaft, priority 2019, published 2022).

Experiments:
ALOMY [1] = assay: Post-emergence herbicidal effect against ALOMY; assay type: in vivo, Alopecurus myosuroides; details: one-leaf stage, 80 g/ha, assessed visually after about 3 weeks vs untreated controls, 100% = plants have died
Protocol: (§1) Seeds of monocotyledonous and dicotyledonous weed and crop plants are laid out in sandy loam soil in wood-fiber pots, covered with soil and cultivated in a greenhouse under good growth conditions. 2 to 3 weeks after sowing, the test plants are treated at the one-leaf stage. The compounds of the invention, formulated in the form of wettable powders (WP) or as emulsion concentrates (EC), are then sprayed onto the green parts of the plants as aqueous suspension or emulsion at a water application rate equating to 600 to 800 l/ha with addition of 0.2% wetting agent. After the test plants have been left to stand in the greenhouse under optimal growth conditions for about 3 weeks, the action of the preparations is assessed visually in comparison to untreated controls (herbicidal action in percent (%): 100% activity=the plants have died, 0% activity=like control plants).

AVEFA [2] = assay: Post-emergence herbicidal effect against AVEFA; assay type: in vivo, Avena fatua; details: one-leaf stage, 80 g/ha, assessed visually after about 3 weeks vs untreated controls, 100% = plants have died
Protocol: as §1

DIGSA [3] = assay: Post-emergence herbicidal effect against DIGSA; assay type: in vivo, Digitaria sanguinalis; details: one-leaf stage, 80 g/ha, assessed visually after about 3 weeks vs untreated controls, 100% = plants have died
Protocol: as §1

ECHCG [4] = assay: Post-emergence herbicidal effect against ECHCG; assay type: in vivo, Echinochloa crus-galli; details: one-leaf stage, 80 g/ha, assessed visually after about 3 weeks vs untreated controls, 100% = plants have died
Protocol: as §1

LOLRI [5] = assay: Post-emergence herbicidal effect against LOLRI; assay type: in vivo, Lolium rigidum; details: one-leaf stage, 80 g/ha, assessed visually after about 3 weeks vs untreated controls, 100% = plants have died
Protocol: as §1

SETVI [6] = assay: Post-emergence herbicidal effect against SETVI; assay type: in vivo, Setaria viridis; details: one-leaf stage, 80 g/ha, assessed visually after about 3 weeks vs untreated controls, 100% = plants have died
Protocol: as §1

HORMU = assay: Post-emergence herbicidal effect against HORMU; assay type: in vivo, Hordeum murinum; details: one-leaf stage, 80 g/ha, assessed visually after about 3 weeks vs untreated controls, 100% = plants have died
Protocol: as §1

ALOMY [7] = assay: Pre-emergence herbicidal effect against ALOMY; assay type: in vivo, Alopecurus myosuroides; details: 320 g/ha, scored visually after 3 weeks vs untreated controls, 100% = plants have died
Source text: (§2) Seeds of monocotyledonous and dicotyledonous weed plants and crop plants are laid out in sandy loam soil in wood-fiber pots and covered with soil. The compounds of the invention, formulated in the form of wettable powders (WP) or as emulsion concentrates (EC), are then applied to the surface of the covering soil as aqueous suspension or emulsion at a water application rate equating to 600 to 800 L/ha with addition of 0.2% wetting agent.
(§3) After the treatment, the pots are placed in a greenhouse and kept under good growth conditions for the trial plants. The damage to the test plants is scored visually after a test period of 3 weeks by comparison with untreated controls (herbicidal activity in percent (%): 100% activity=the plants have died, 0% activity=like control plants).

AVEFA [8] = assay: Pre-emergence herbicidal effect against AVEFA; assay type: in vivo, Avena fatua; details: 320 g/ha, scored visually after 3 weeks vs untreated controls, 100% = plants have died
Source text: as §2, §3

DIGSA [9] = assay: Pre-emergence herbicidal effect against DIGSA; assay type: in vivo, Digitaria sanguinalis; details: 320 g/ha, scored visually after 3 weeks vs untreated controls, 100% = plants have died
Source text: as §2, §3

LOLRI [10] = assay: Pre-emergence herbicidal effect against LOLRI; assay type: in vivo, Lolium rigidum; details: 320 g/ha, scored visually after 3 weeks vs untreated controls, 100% = plants have died
Source text: as §2, §3

SETVI [11] = assay: Pre-emergence herbicidal effect against SETVI; assay type: in vivo, Setaria viridis; details: 320 g/ha, scored visually after 3 weeks vs untreated controls, 100% = plants have died
Source text: as §2, §3

VIOTR = assay: Pre-emergence herbicidal effect against VIOTR; assay type: in vivo, Viola tricolor; details: 320 g/ha, scored visually after 3 weeks vs untreated controls, 100% = plants have died
Source text: as §2, §3

ECHCG [12] = assay: Pre-emergence herbicidal effect against ECHCG; assay type: in vivo, Echinochloa crus-galli; details: 320 g/ha, scored visually after 3 weeks vs untreated controls, 100% = plants have died
Source text: as §2, §3

SMILES | Post-emergence action [%] against ALOMY (ALOMY [1]) | Post-emergence action [%] against AVEFA (AVEFA [2]) | Post-emergence action [%] against DIGSA (DIGSA [3]) | Post-emergence action [%] against ECHCG (ECHCG [4]) | Post-emergence action [%] against LOLRI (LOLRI [5]) | Post-emergence action [%] against SETVI (SETVI [6]) | Post-emergence action [%] against HORMU (HORMU) | Pre-emergence action [%] against ALOMY (ALOMY [7]) | Pre-emergence action [%] against AVEFA (AVEFA [8]) | Pre-emergence action [%] against DIGSA (DIGSA [9]) | Pre-emergence action [%] against LOLRI (LOLRI [10]) | Pre-emergence action [%] against SETVI (SETVI [11]) | Pre-emergence action [%] against VIOTR (VIOTR) | Pre-emergence action [%] against ECHCG (ECHCG [12])
CC#Cc1cc(C)c(C2=C(O)C3(CCC(OCC)CC3)NC2=O)c(Cl)c1 (stereo not shown) [Example E10] | 100% | 100% | 100% | 100% | 100% | 100% | 100% |  |  |  |  |  |  | 
CC#Cc1cc(C)c(C2=C(OC(=O)OCC)C3(CCC(CC)CC3)NC2=O)c(Cl)c1 (stereo not shown) [Example P3] | 100% |  | 100% | 100% | 100% | 100% | 100% |  |  |  |  |  |  | 
CC#Cc1cc(C)c(C2=C(OC(=O)OCC)C3(CCC(OC(C)C)CC3)NC2=O)c(Cl)c1 (stereo not shown) [Example P15] | 100% | 100% | 100% | 100% | 100% | 100% | 90% |  |  |  |  |  |  | 
CC#Cc1cc(C)c(C2=C(OC(=O)OCC)C3(CCCC(OCCC)C3)NC2=O)c(Cl)c1 (stereo not shown) [Example Q5] | 100% | 100% | 100% | 100% | 100% | 100% | 100% |  |  |  |  |  |  | 
CC#Cc1cc(C)c(C2=C(O)C3(CCC(OC)CC3)NC2=O)c(Cl)c1 (stereo not shown) [Example E19] | 100% | 100% | 100% | 100% | 100% | 100% | 100% |  |  |  |  |  |  | 
C=CCOC1CCC2(CC1)NC(=O)C(c1c(C)cc(C#CC)cc1Cl)=C2O (stereo not shown) [Example E7] | 100% | 80% | 100% | 100% | 100% | 100% | 90% |  |  |  |  |  |  | 
CC#Cc1cc(C)c(C2=C(OC(=O)C(C)C)C3(CCC(OC)CC3)NC2=O)c(Cl)c1 (stereo not shown) [Example P12] | 100% | 100% | 100% | 100% | 100% | 100% | 100% |  |  |  |  |  |  | 
CC#Cc1cc(C)c(C2=C(OC(=O)OCC)C3(CCC(OC)CC3)NC2=O)c(Cl)c1 (stereo not shown) [Example P11] | 100% | 100% | 100% | 100% | 100% | 100% | 90% |  |  |  |  |  |  | 
CC#Cc1cc(C)c(C2=C(OC(=O)OCC)C3(CCC(OCC)CC3)NC2=O)c(Cl)c1 (stereo not shown) [Example P16] | 100% | 100% | 100% | 100% | 100% | 100% | 100% |  |  |  |  |  |  | 
CC#Cc1cc(C)c(C2=C(O)C3(CCC(CC)CC3)NC2=O)c(Cl)c1 (stereo not shown) [Example E1] | 100% | 100% | 100% | 100% | 100% | 100% | 100% |  |  |  |  |  |  | 
CC#Cc1cc(C)c(C2=C(O)C3(CCC(OC)CC3)NC2=O)c(Br)c1 (stereo not shown) [Example E21] | 100% | 90% | 100% | 100% | 100% | 100% |  | 100% | 100% | 100% | 100% | 100% | 100% | 100%
CC#Cc1cc(C)c(C2=C(OC(=O)OCC)C3(CCC(OC)CC3)NC2=O)c(Br)c1 (stereo not shown) [Example P13] | 100% | 100% | 100% | 100% | 100% | 100% |  | 100% | 100% | 100% | 100% | 100% | 100% | 100%
CC#Cc1cc(C)c(C2=C(O)C3(CCC(OC(C)C)CC3)NC2=O)c(Cl)c1 (stereo not shown) [Example E13] | 100% | 100% | 100% | 100% | 100% | 100% | 100% |  |  |  |  |  |  | 
CC#Cc1cc(C)c(C2=C(O)C3(CCCC(OCCC)C3)NC2=O)c(Cl)c1 (stereo not shown) [Example D1, 3-[2-Chloro-6-methyl-4-(prop-1-yn-1-yl)phenyl]-4-hydroxy-7-propoxy-1-azaspiro[4.5]dec-3-en-2-one] | 100% | 100% | 100% | 100% | 100% | 100% | 100% |  |  |  |  |  |  | 
CC#Cc1cc(Cl)c(C2=C(OC(=O)OCC)C3(CCC(OC)CC3)NC2=O)c(CC)c1 (stereo not shown) [Example P21] | 90% | 80% | 100% | 100% | 80% | 100% |  | 100% | 100% | 100% | 100% | 100% | 90% | 100%
CC#Cc1cc(C)c(C2=C(OC(=O)OC)C3(CCC(OC)CC3)NC2=O)c(Cl)c1 (stereo not shown) [Example P10] | 100% | 100% | 100% | 100% | 100% | 100% | 100% |  |  |  |  |  |  | 
CC#Cc1cc(C)c(C2=C(O)C3(CCCC(OCCOC)C3)NC2=O)c(Br)c1 (stereo not shown) [Example D6] | 100% | 100% | 100% | 100% | 100% | 100% |  | 100% | 100% | 100% | 100% | 100% | 100% | 100%
